In US12396981B2 (priority 2023, dated 2025):
Where “and” joins values, the source holds several entries; their conditions need not be identical. Equal entries are not always repeated.

Experiments:
[1] = cited from earlier work
NMDA receptors = conditions: Moliner 2023; cited from earlier work
[2] = target: Tropomyosin receptor kinase B (TrkB) (Homo sapiens, UniProt Q16620); conditions: Moliner 2023; cited from earlier work
5-HT1B = 5-HT1B (Homo sapiens, UniProt P28222); conditions: Halberstadt & Geyer 2011; cited from earlier work
5-HT5A = 5-HT5A (Homo sapiens, UniProt P47898); conditions: Halberstadt & Geyer 2011; cited from earlier work
5-HT1D = 5-HT1D (Homo sapiens, UniProt P28221); conditions: Halberstadt & Geyer 2011; cited from earlier work
sigma-1 receptor = sigma-1 receptor (Homo sapiens, UniProt Q99720); conditions: Fontanilla 2009; Ray 2010; cited from earlier work
5-HT6 = 5-HT6 (Homo sapiens, UniProt P50406); conditions: Halberstadt & Geyer 2011; cited from earlier work
[3] = Challenging Experience Questionnaire (CEQ) after inhaling DMT according to a disclosed method; assay type: in vivo, human
Description: (§1) The study included nine participants with the following demographic characteristics:
(§2) For the MEQ and CEQ higher scores indicate a more mystical experience and a more challenging experience, respectively.

5-HT1E = 5-HT1E (Homo sapiens, UniProt P28566); conditions: Halberstadt & Geyer 2011; cited from earlier work
5-HT2A = 5-HT2A (Homo sapiens, UniProt P28223); conditions: Halberstadt & Geyer 2011; cited from earlier work
[4] = Mystical Experience Questionnaire (MEQ30) after inhaling DMT according to a disclosed method; assay type: in vivo, human
Description: as §1, §2

[5] = cited from earlier work; remark: listed apart in the source
5-HT7 = 5-HT7 (Homo sapiens, UniProt P34969); conditions: Halberstadt & Geyer 2011; cited from earlier work
[6] = comparable to psilocin; Jones 2024; cited from earlier work
[7] = mean over the nine participants
[8] = per participant, r8-r16 = participants 1-9
[9] = MEQ30 item score, c1-c9 = participants 1-9, after inhaled DMT per disclosed method
[10] = mean item score per participant, r7-r15 = participants 1-9
[11] = total per participant, r7-r15 = participants 1-9

Tropomyosin receptor kinase B (TrkB), sequence (Q16620 32-822, species assumed): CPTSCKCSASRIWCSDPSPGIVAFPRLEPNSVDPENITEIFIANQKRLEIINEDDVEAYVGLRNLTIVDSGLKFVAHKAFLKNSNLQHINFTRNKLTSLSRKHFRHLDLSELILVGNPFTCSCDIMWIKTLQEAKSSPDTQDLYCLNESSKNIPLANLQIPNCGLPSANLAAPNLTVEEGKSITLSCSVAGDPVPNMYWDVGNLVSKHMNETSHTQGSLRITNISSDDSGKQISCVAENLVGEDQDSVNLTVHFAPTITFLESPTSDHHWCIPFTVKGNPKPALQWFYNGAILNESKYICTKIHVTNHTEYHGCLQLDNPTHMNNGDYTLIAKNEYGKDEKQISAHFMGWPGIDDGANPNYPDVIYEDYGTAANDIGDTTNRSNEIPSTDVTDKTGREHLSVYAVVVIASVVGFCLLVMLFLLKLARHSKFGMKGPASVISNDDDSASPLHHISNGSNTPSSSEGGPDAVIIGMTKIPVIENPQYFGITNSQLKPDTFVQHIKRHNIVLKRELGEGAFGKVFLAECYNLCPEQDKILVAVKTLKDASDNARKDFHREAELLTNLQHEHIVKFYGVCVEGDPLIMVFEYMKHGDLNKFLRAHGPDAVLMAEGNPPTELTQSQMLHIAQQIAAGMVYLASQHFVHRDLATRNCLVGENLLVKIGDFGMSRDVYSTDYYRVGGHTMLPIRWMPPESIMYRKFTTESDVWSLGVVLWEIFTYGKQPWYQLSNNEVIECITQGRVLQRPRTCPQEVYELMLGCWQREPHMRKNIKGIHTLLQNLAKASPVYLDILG
5-HT1D, sequence (P28221 whole entry, species assumed): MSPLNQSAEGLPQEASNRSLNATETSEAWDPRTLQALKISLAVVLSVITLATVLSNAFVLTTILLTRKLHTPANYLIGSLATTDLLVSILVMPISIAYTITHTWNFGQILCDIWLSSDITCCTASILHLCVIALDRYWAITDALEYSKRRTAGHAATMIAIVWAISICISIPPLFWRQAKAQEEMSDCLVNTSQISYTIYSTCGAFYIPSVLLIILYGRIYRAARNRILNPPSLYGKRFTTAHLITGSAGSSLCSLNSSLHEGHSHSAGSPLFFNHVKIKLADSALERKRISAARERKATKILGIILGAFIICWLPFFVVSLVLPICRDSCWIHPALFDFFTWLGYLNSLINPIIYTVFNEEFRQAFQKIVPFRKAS
5-HT1B, sequence (P28222 whole entry, species assumed): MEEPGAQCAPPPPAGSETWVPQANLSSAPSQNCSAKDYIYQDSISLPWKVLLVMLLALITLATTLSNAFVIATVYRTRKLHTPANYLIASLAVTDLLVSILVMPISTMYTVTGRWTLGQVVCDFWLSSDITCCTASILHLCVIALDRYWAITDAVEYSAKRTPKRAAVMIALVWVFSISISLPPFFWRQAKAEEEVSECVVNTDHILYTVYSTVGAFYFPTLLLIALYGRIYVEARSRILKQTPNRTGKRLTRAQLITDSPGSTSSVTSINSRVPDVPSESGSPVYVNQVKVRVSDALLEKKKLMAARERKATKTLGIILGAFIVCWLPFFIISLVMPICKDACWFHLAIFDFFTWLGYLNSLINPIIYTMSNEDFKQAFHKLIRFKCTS
sigma-1 receptor, sequence (Q99720 whole entry, species assumed): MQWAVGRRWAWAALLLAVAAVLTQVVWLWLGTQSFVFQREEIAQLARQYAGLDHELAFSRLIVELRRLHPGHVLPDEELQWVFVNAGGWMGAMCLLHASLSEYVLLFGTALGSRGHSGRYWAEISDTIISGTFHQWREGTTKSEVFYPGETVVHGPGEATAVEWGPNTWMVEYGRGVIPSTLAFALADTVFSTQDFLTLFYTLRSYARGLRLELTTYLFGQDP
5-HT5A, sequence (P47898 whole entry, species assumed): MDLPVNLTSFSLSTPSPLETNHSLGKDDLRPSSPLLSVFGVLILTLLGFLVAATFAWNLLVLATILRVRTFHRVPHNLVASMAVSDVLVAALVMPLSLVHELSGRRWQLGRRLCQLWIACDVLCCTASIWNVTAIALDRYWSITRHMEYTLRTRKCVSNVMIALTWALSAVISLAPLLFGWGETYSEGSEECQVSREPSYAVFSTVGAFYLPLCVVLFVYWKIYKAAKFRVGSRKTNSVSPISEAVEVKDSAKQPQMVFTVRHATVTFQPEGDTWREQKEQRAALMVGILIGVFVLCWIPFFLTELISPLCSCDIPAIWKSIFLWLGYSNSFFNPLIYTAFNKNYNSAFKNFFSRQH
5-HT7, sequence (P34969 whole entry, species assumed): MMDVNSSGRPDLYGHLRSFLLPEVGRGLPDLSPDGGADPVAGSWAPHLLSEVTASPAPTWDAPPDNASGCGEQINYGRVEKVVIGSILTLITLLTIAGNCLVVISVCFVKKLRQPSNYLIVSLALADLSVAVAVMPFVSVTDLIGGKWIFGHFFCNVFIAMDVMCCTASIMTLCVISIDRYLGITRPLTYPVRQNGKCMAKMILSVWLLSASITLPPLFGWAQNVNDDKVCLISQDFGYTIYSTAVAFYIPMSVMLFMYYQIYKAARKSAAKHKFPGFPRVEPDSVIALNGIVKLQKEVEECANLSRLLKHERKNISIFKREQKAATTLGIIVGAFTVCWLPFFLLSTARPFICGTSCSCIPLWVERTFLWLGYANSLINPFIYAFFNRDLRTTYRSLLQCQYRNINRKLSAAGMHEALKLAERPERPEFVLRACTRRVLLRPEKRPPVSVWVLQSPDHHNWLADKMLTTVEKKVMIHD
5-HT1E, sequence (P28566 whole entry, species assumed): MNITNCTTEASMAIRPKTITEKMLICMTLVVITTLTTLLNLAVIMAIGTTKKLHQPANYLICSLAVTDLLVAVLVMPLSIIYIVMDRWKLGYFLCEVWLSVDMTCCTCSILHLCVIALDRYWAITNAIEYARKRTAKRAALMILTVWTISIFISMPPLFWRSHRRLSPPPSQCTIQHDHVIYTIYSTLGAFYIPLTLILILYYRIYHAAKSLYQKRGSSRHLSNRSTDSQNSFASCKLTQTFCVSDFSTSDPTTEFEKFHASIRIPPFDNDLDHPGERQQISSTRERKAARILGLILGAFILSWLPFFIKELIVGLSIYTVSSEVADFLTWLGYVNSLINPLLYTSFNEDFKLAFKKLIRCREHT
5-HT6, sequence (P50406 whole entry, species assumed): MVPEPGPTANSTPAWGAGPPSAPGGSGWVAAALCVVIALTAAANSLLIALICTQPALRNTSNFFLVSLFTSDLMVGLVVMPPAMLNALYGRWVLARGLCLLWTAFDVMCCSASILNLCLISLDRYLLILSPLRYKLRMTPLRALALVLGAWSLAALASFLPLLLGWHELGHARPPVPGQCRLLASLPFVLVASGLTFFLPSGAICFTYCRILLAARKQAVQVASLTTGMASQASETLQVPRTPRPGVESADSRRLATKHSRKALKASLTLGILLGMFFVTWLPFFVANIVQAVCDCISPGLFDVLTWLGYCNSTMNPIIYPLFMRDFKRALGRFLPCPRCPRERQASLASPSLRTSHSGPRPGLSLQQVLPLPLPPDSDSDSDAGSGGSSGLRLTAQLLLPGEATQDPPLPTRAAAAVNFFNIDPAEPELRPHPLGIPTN
5-HT2A, sequence (P28223 whole entry): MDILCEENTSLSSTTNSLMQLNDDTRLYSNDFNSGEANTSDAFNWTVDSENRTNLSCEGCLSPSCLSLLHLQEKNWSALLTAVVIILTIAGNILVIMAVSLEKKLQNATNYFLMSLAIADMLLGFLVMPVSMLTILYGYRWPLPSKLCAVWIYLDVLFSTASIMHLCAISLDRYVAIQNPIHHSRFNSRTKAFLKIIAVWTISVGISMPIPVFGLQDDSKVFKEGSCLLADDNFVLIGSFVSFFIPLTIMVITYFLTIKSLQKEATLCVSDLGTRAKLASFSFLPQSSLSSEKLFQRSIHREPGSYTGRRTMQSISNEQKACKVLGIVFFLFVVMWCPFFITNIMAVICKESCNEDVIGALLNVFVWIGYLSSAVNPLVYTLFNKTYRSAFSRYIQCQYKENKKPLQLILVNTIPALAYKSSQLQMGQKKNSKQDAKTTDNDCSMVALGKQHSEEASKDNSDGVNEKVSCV

O=C1Nc2ccc(Cl)cc2C(c2ccccc2Cl)=NC1O (racemic) [Lorazepam, ±7-chloro-5-(2-chlorophenyl)-1,3-dihydro-3-hydroxy-2H-1,4-benzodiazepin-2-one]
time of peak plasma concentrations (Tmax) ([1]; after oral administration): about 2 hours
half-life in human plasma ([1]; human plasma): about 12 hours

N[C@@]1(c2ccccc2Cl)CCC[C@@H](O)C1=O [2R,6R-hydroxynorketamine]
affinity to NMDA receptors (NMDA receptors): low affinity
binding to TrkB [2]: binds to TrkB

CN(C)CCc1c[nH]c2ccccc12 [DMT, N,N-dimethyltryptamine]
Ki (5-HT1B): 129 nM
Ki (5-HT5A): 2140 nM
Ki (5-HT1D): 39 nM
binding to the sigma-1 receptor (sigma-1 receptor): binds to the sigma-1 receptor
Ki (5-HT6): 464 nM
mean participant score, of the maximum score ([3]; Fear, Physical Distress, Insanity, Isolation, Death, and Paranoia subscales): less than 6%
mean participant score on each of the CEQ subscales, of the maximum possible score ([3]; each CEQ subscale): ≤ 10%
Death, Mean (CEQ dimension) [3, 7]: 0.44
Fear, Mean (CEQ dimension) [3, 7]: 1.889
Grief, Mean (CEQ dimension) [3, 7]: 3.11
Insanity, Mean (CEQ dimension) [3, 7]: 0.89
Isolation, Mean (CEQ dimension) [3, 7]: 0.78
Paranoia, Mean (CEQ dimension) [3, 7]: 0.44
Physical Distress, Mean (CEQ dimension) [3, 7]: 0.89
Death (CEQ dimension score) [3, 8]: 1 (2×) and 2 and 0 (6×)
Fear (CEQ dimension score) [3, 8]: 0 (5×) and 5 (3×) and 2
Grief (CEQ dimension score) [3, 8]: 1 and 6 (2×) and 0 (4×) and 12 and 3
Insanity (CEQ dimension score) [3, 8]: 0 (5×) and 3 and 2 (2×) and 1
Isolation (CEQ dimension score) [3, 8]: 0 (7×) and 3 and 4
Paranoia (CEQ dimension score) [3, 8]: 0 (7×) and 2 (2×)
Physical Distress (CEQ dimension score) [3, 8]: 1 (3×) and 5 and 0 (5×)
Ki (5-HT1E): 517 nM
Ki (5-HT2A): 127 nM
2.1 Experience of amazement. [4, 9]: 3 and 5 and 4
2.4 Experience of ecstasy. [4, 9]: 3 and 5 and 4
2.5 Sense of awe or awesomeness. [4, 9]: 3 and 5 and 4
2.6 Feelings of joy. [4, 9]: 3 and 4 and 5
4.2 Feeling that you could not do justice to your experience by describing it in words. [4, 9]: 4 and 3 and 5
4.3 Feeling that it would be difficult to communicate your own experience to others who have not had similar experiences. [4, 9]: 3 and 4 and 5
Ineffability, mean participant score (MEQ30 dimension) [4, 10]: 5.00 (4×) and 4.00 (3×) and 3.00 (2×)
Mysticism, mean participant score (MEQ30 dimension) [4, 10]: 2.53 and 3.33 and 5.00 and 3.87 and 4.00 (2×) and 4.73 and 1.33 and 3.60
Positive Mood, mean participant score (MEQ30 dimension) [4, 10]: 4.33 (2×) and 3.50 (2×) and 4.83 and 4.50 and 2.67 (2×) and 5.00
Transcendence, mean participant score (MEQ30 dimension) [4, 10]: 2.83 and 5.00 (2×) and 3.83 and 4.00 and 1.50 and 2.67 and 3.50
Ineffability, Mean (MEQ30 dimension) [4, 7]: 4.22
Mysticism, Mean (MEQ30 dimension) [4, 7]: 3.60
Positive Mood, Mean (MEQ30 dimension) [4, 7]: 3.93
Transcendence, Mean (MEQ30 dimension) [4, 7]: 3.35
participants with a score >= 60% of the maximum score on the Ineffability subscale ([4]; nine participants): 100%
participants with a score >= 60% of the maximum score on the Mystical and Positive Mood subscales ([4]; nine participants): 78%
participants with a score >= 60% of the maximum score on the Transcendence of Time and Space subscale ([4]; nine participants): 55%
participants with a score >= 75% of the maximum score on the Ineffability subscale ([4]; nine participants): 78%
participants with a score >= 75% of the maximum score on the Transcendence of Time and Space subscale ([4]; nine participants): 44%
participants with a score >= 75% of the maximum scores on the Mystical and Positive Mood subscales ([4]; nine participants): 55%
participants with a score of greater than or equal to 60% on at least one MEQ30 subscale ([4]; nine participants): all participants
Ineffability, total score (MEQ30 subscale) [4, 11]: 15 (4×) and 12 (3×) and 9 (2×)
Mysticism, total score (MEQ30 subscale) [4, 11]: 38 and 50 and 75 and 58 and 60 (2×) and 71 and 20 and 54
Positive Mood, total score (MEQ30 subscale) [4, 11]: 26 (2×) and 21 (2×) and 29 and 27 and 16 (2×) and 30
Transcendence, total score (MEQ30 subscale) [4, 11]: 17 and 11 and 30 (2×) and 23 and 24 and 9 and 16 and 21
half life from the blood ([5]; blood): less than 16 minutes
half life from the brain ([5]; brain): less than six
binding to TrkB [2]: do not bind TrkB directly
Ki (5-HT7): 206 nM

CNC1(c2ccccc2Cl)CCCCC1=O (stereo not shown) [Ketamine]
binding to TrkB [2]: does directly bind to TrkB

CC(=O)Oc1cccc2[nH]cc(CCN(C)C)c12 [Psilacetin, 4-acetoxy-N,N-dimethyltryptamine]
duration of subjective effects [6]: 4 to 8 h

CN(C)CCc1c[nH]c2cccc(O)c12 [Psilocin, 4-hydroxy-N,N-dimethyltryptamine]
Ki (5-HT1B): 220 nM
Ki (5-HT1D): 36.4 nM
binding to the sigma-1 receptor (sigma-1 receptor): no affinity
